Measured values: ChEMBL document CHEMBL4842393, “Targeting KRAS G12D Mutant for the Potential Treatment of Pancreatic Cancer” (ACS Med Chem Lett, 2021)

Target: GTPase KRas (Homo sapiens, UniProt P01116, G12D)
Assay: Displacement of Cy5-labelled tracer from biotinylated GDP-loaded human recombinant KRAS G12D mutant (1 to 169 residues) measured after 60 mins by TR-FRET assay

Oc1cc(-c2ncc3c(N4CC5CCC(C4)N5)nc(OCC45CCCN4C(CF)CC5)nc3c2F)c2ccccc2c1 (stereo unspecified) gave an IC50 of 0.1 nM.
